Data published in US20210169984A1, “SENSITIZING CANCER TO DEATH RECEPTOR AGONISTS WITH KINASE INHIBITORS” (The Johns Hopkins University, priority 2016, published 2021).
Counter-ions that a name gives are not always drawn.

Columns and labels:
Assay type in all cases: cell-based, human
[1] = tested on: MDA-MB-231 breast cancer cells; experiment: KI library screen for TRAIL sensitization
Excerpt: (§1) A library of KIs was screened for TRAIL sensitization in various TRAIL-resistant cancer cells, including: HT29 (CRC), MDA-MB-231 (breast), LNCAP (prostate), DU145 (prostate), PC3 (prostate) and A549 (lung). […] The 355 KIs comprised of compounds targeting diverse kinases, including multi kinases, RTK (receptor kinase tyrosine), PI3K (phosphinistide 3-kinase), aurora kinases, including […] (mitogen-activated protein kinase). […] The interaction between KIs and TRAIL had been previously explored in vitro with the tyrosine KI sorafenib, a drug similar to regorafenib. However, such studies were mostly performed on cellular levels and not in in vivo models, combined with systemically administered recombinant TRAIL. Although a similar structure, regorafenib was newly approved in 2012. The interactions between the three other selected KIs and TRAIL have not been previously reported, in vitro or in vivo.

[2] = tested on: HT29 (CRC) cells; experiment: KI library screen for TRAIL sensitization (KI pretreatment, then TRAILPEG; MTT cell death assay); conditions: for efficacy when combined with TRAILPEG (relative cell death, KI+TRAILPEG / KI alone): HT29 cells pretreated with KI for 24 hours before TRAILPEG; for KIs that sensitize cancer cells to TRAIL-based agents: HT-29 colorectal adenocarcinoma
Description: The screening is performed using an MTT cell death assay in CRC cells with different TRAIL sensitivities.

[3] = tested on: A549 lung carcinoma cells; experiment: KI library screen for TRAIL sensitization
Excerpt: as §1

[4] = tested on: HP LNCAP prostate adenocarcinoma cells; experiment: KI library screen for TRAIL sensitization
Excerpt: as §1
Regorafenib potentiated TRAIL-induced apoptosis in prostate cancer cells (LNCAP, HPLNCAP (High Passages LNCAP), DU-145 and PC-3) when combined with TRAILPEG (1 μg/mL) (FIG. 5). After treating cells with regorafenib (5 μM), caspases and anti-apoptotic proteins were analyzed by western blotting (FIG. 6A-FIG. 6C). […] Data confirmed that FDA-approved KIs or KIs under clinical development synergized with long-acting TRAILPEG by overcoming TRAIL-resistance through unique TRAIL sensitization mechanisms.

[5] = tested on: LNCAP prostate adenocarcinoma cells; experiment: KI library screen for TRAIL sensitization
Excerpt: as §1

## Cc1cnc(Nc2ccc(N3CCN(C)CC3)cc2)nc1Nc1cccc(S(=O)(=O)NC(C)(C)C)c1 [TG101209]
[1]
  KIs that sensitize cancer cells to TRAIL-based agents: Example KIs that sensitize cancer cells to TRAIL-based agents.

## Cn1c(=O)n(-c2ccc(C(C)(C)C#N)cc2)c2c3cc(-c4cnc5ccccc5c4)ccc3ncc21 [BEZ235 (NVP-BEZ235, Dactolisib), Dactolisib]
[2]
  efficacy when combined with TRAILPEG (relative cell death, KI+TRAILPEG / KI alone): synergistic efficacy
  KIs that sensitize cancer cells to TRAIL-based agents: Example KIs that sensitize cancer cells to TRAIL-based agents.

## CCOc1cc2ncc(C#N)c(Nc3ccc(F)c(Cl)c3)c2cc1NC(=O)/C=C/CN(C)C [Pelitinib (EKB-569), Pelitinib]
[1]
  KIs that sensitize cancer cells to TRAIL-based agents: Example KIs that sensitize cancer cells to TRAIL-based agents.

## CC[C@@H]1C(=O)N(C)c2cnc(Nc3ccc(C(=O)N[C@H]4CC[C@H](N5CCN(CC6CC6)CC5)CC4)cc3OC)nc2N1C(C)C [Volasertib (BI 6727), Volasertib]
[1]
  KIs that sensitize cancer cells to TRAIL-based agents: Example KIs that sensitize cancer cells to TRAIL-based agents.

## CCCCOc1c(C(=O)c2c(F)cc(C)cc2F)c[nH]c2nncc1-2 [BMS-265246]
[3]
  KIs that sensitize cancer cells to TRAIL-based agents: Example KIs that sensitize cancer cells to TRAIL-based agents.
[1]
  KIs that sensitize cancer cells to TRAIL-based agents: Example KIs that sensitize cancer cells to TRAIL-based agents.

## CCS(=O)(=O)c1cccc(-c2cc(C(=O)NC3CCN(C)CC3)c(C)c3[nH]c4ncc(C)cc4c23)c1 [TAK-901]
[1]
  KIs that sensitize cancer cells to TRAIL-based agents: Example KIs that sensitize cancer cells to TRAIL-based agents.

## CC(C)(C)c1cnc(CSc2cnc(NC(=O)C3CCNCC3)s2)o1 [SNS-032 (BMS-387032)]
[3]
  KIs that sensitize cancer cells to TRAIL-based agents: Example KIs that sensitize cancer cells to TRAIL-based agents.
[1]
  KIs that sensitize cancer cells to TRAIL-based agents: Example KIs that sensitize cancer cells to TRAIL-based agents.

## CNC(=O)c1nn(C)c2c1C(C)(C)Cc1cnc(Nc3ccc(N4CCN(C)CC4)cc3)nc1-2 [Milciclib (PHA-848125), Milciclib]
[1]
  KIs that sensitize cancer cells to TRAIL-based agents: Example KIs that sensitize cancer cells to TRAIL-based agents.

## CC(C)(C)c1cc(/C=C(\C#N)C(N)=S)cc(C(C)(C)C)c1O [Tyrphostin AG 879]
[4]
  KIs that sensitize cancer cells to TRAIL-based agents: Example KIs that sensitize cancer cells to TRAIL-based agents.

## O=C1NCCc2[nH]c(-c3ccncc3)cc21 [PHA-767491]
[1]
  KIs that sensitize cancer cells to TRAIL-based agents: Example KIs that sensitize cancer cells to TRAIL-based agents.

## CN(c1ncccc1CNc1nc(Nc2ccc3c(c2)CC(=O)N3)ncc1C(F)(F)F)S(C)(=O)=O [PF-00562271]
[1]
  KIs that sensitize cancer cells to TRAIL-based agents: Example KIs that sensitize cancer cells to TRAIL-based agents.

## COc1cccc(-c2cc(=O)c3ccccc3o2)c1N [PD98059]
[2]
  efficacy when combined with TRAILPEG (relative cell death, KI+TRAILPEG / KI alone): synergistic efficacy
  KIs that sensitize cancer cells to TRAIL-based agents: Example KIs that sensitize cancer cells to TRAIL-based agents.

## COc1cc2ncnc(Nc3ccc(Cl)cc3F)c2cc1OC [ZM 306416]
[5]
  KIs that sensitize cancer cells to TRAIL-based agents: Example KIs that sensitize cancer cells to TRAIL-based agents.

## C=CC(=O)Nc1cc2c(Nc3ccc(F)c(Cl)c3)ncnc2cc1OCCCN1CCOCC1 [Canertinib (CI-1033), Canertinib]
[1]
  KIs that sensitize cancer cells to TRAIL-based agents: Example KIs that sensitize cancer cells to TRAIL-based agents.

## CCN1CCN(c2ccc(Nc3cc(N(C)C(=O)Nc4c(Cl)c(OC)cc(OC)c4Cl)ncn3)cc2)CC1 [BGJ398 (NVP-BGJ398)]
[3]
  KIs that sensitize cancer cells to TRAIL-based agents: Example KIs that sensitize cancer cells to TRAIL-based agents.

## C[C@]1(O)C[C@@H](c2nc(-c3ccc4ccc(-c5ccccc5)nc4c3)c3c(N)nccn32)C1 [OSI-906 (Linsitinib), Linsitinib]
[5]
  KIs that sensitize cancer cells to TRAIL-based agents: Example KIs that sensitize cancer cells to TRAIL-based agents.

## COc1cc2ncc(-c3ccccc3)nc2cc1OC [Tyrphostin AG 1296]
[5]
  KIs that sensitize cancer cells to TRAIL-based agents: Example KIs that sensitize cancer cells to TRAIL-based agents.

## CC(C)CC(=O)Nc1[nH]nc2c1CN(C(=O)C1CCN(C)CC1)C2(C)C [PHA-793887]
[1]
  KIs that sensitize cancer cells to TRAIL-based agents: Example KIs that sensitize cancer cells to TRAIL-based agents.

## Cc1cc(CN2CCN(c3c(Br)cnc4nc(-c5ccc(N6CCN(C)CC6)cc5)[nH]c34)CC2)no1 [CCT137690]
[1]
  KIs that sensitize cancer cells to TRAIL-based agents: Example KIs that sensitize cancer cells to TRAIL-based agents.

## CC[C@H](CO)Nc1nc(NCc2ccccc2)c2ncn(C(C)C)c2n1 [Roscovitine (Seliciclib, CYC202), Roscovitine]
[1]
  KIs that sensitize cancer cells to TRAIL-based agents: Example KIs that sensitize cancer cells to TRAIL-based agents.

## CS(=O)(=O)CCNCc1ccc(-c2ccc3ncnc(Nc4ccc(OCc5cccc(F)c5)c(Cl)c4)c3c2)o1 [Lapatinib (GW-572016) Ditosylate, Lapatinib]
[3]
  KIs that sensitize cancer cells to TRAIL-based agents: Example KIs that sensitize cancer cells to TRAIL-based agents.
[5]
  KIs that sensitize cancer cells to TRAIL-based agents: Example KIs that sensitize cancer cells to TRAIL-based agents.

## O=c1[nH]c2ccc(Cl)cc2c(N[C@@H]2CN3CCC2CC3)c1-c1nc2ccccc2[nH]1 [CHIR-124]
[3]
  KIs that sensitize cancer cells to TRAIL-based agents: Example KIs that sensitize cancer cells to TRAIL-based agents.
[1]
  KIs that sensitize cancer cells to TRAIL-based agents: Example KIs that sensitize cancer cells to TRAIL-based agents.

## O=C(Nc1ccc(OC(F)(F)F)cc1)c1sccc1NCc1ccnc2ccccc12 [OSI-930]
[2]
  efficacy when combined with TRAILPEG (relative cell death, KI+TRAILPEG / KI alone): synergistic efficacy
  KIs that sensitize cancer cells to TRAIL-based agents: Example KIs that sensitize cancer cells to TRAIL-based agents.

## CHIR-98014
[1]
  KIs that sensitize cancer cells to TRAIL-based agents: Example KIs that sensitize cancer cells to TRAIL-based agents.

## Cc1ncc(-c2ccnc(Nc3ccc(S(C)(=O)=O)cc3)n2)n1C(C)C [AZD5438]
[3]
  KIs that sensitize cancer cells to TRAIL-based agents: Example KIs that sensitize cancer cells to TRAIL-based agents.

## CN1CC[C@H](c2c(O)cc(O)c3c(=O)cc(-c4ccccc4Cl)oc23)[C@H](O)C1 [Flavopiridol HCl]
[3]
  KIs that sensitize cancer cells to TRAIL-based agents: Example KIs that sensitize cancer cells to TRAIL-based agents.
[1]
  KIs that sensitize cancer cells to TRAIL-based agents: Example KIs that sensitize cancer cells to TRAIL-based agents.

## Cc1[nH]nc2ccc(-c3cncc(OC[C@@H](N)Cc4ccccc4)c3)cc12 [A-674563]
[1]
  KIs that sensitize cancer cells to TRAIL-based agents: Example KIs that sensitize cancer cells to TRAIL-based agents.

## N#CC1(c2ccc(NC(=O)c3cccnc3NCc3ccncc3)cc2)CCCC1 [Apatinib]
[3]
  KIs that sensitize cancer cells to TRAIL-based agents: Example KIs that sensitize cancer cells to TRAIL-based agents.

## CNC(=O)c1ccc(-c2cnc3ncc(Cc4ccc5ncccc5c4)n3n2)cc1F [INCB28060]
[5]
  KIs that sensitize cancer cells to TRAIL-based agents: Example KIs that sensitize cancer cells to TRAIL-based agents.

## CCc1cc(Nc2nccc(-c3c(-c4ccc(OC)c(C(=O)Nc5c(F)cccc5F)c4)nc4ccccn34)n2)c(OC)cc1N1CCC(N2CCN(S(C)(=O)=O)CC2)CC1 [GSK1904529A]
[3]
  KIs that sensitize cancer cells to TRAIL-based agents: Example KIs that sensitize cancer cells to TRAIL-based agents.

## CCN(CC)CCNC(=O)c1c(C)[nH]c(/C=C2\C(=O)Nc3ccc(F)cc32)c1C [Sunitinib Malate]
[5]
  KIs that sensitize cancer cells to TRAIL-based agents: Example KIs that sensitize cancer cells to TRAIL-based agents.

## Cc1cc(Nc2cc(N3CCN(C)CC3)nc(/C=C/c3ccccc3)n2)n[nH]1 [ENMD-2076]
[2]
  efficacy when combined with TRAILPEG (relative cell death, KI+TRAILPEG / KI alone): synergistic efficacy
  KIs that sensitize cancer cells to TRAIL-based agents: Example KIs that sensitize cancer cells to TRAIL-based agents.

## CC[C@H](Nc1ncnc2[nH]cnc12)c1nc2cccc(F)c2c(=O)n1-c1ccccc1 [CAL-101 (Idelalisib, GS-1101), Idelalisib]
[2]
  efficacy when combined with TRAILPEG (relative cell death, KI+TRAILPEG / KI alone): synergistic efficacy
  KIs that sensitize cancer cells to TRAIL-based agents: Example KIs that sensitize cancer cells to TRAIL-based agents.

## O=C(NC1CCNCC1)c1[nH]ncc1NC(=O)c1c(Cl)cccc1Cl [AT7519]
[3]
  KIs that sensitize cancer cells to TRAIL-based agents: Example KIs that sensitize cancer cells to TRAIL-based agents.

## Cc1cc(Nc2nc(N[C@@H](C)c3ccc(F)cc3)c(C#N)cc2F)[nH]n1 [AZ 960]
[1]
  KIs that sensitize cancer cells to TRAIL-based agents: Example KIs that sensitize cancer cells to TRAIL-based agents.

## CCO.N#CC(=C(/N)Sc1ccccc1N)/C(C#N)=C(\N)Sc1ccccc1N [U0126-EtOH]
[2]
  efficacy when combined with TRAILPEG (relative cell death, KI+TRAILPEG / KI alone): synergistic efficacy
  KIs that sensitize cancer cells to TRAIL-based agents: Example KIs that sensitize cancer cells to TRAIL-based agents.

## Cc1ccc([N+](=O)[O-])cc1S(=O)(=O)N(C)/N=C/c1cnc2ccc(Br)cn12 [PIK-75]
[1]
  KIs that sensitize cancer cells to TRAIL-based agents: Example KIs that sensitize cancer cells to TRAIL-based agents.

## N#CCNC(=O)c1ccc(-c2ccnc(Nc3ccc(N4CCOCC4)cc3)n2)cc1 [CYT387]
[1]
  KIs that sensitize cancer cells to TRAIL-based agents: Example KIs that sensitize cancer cells to TRAIL-based agents.

## Cc1cc(Nc2cc(CN3CCOCC3)c3nc(C)c(Cc4ccc(Cl)cc4F)n3n2)n[nH]1 [LY2784544]
[1]
  KIs that sensitize cancer cells to TRAIL-based agents: Example KIs that sensitize cancer cells to TRAIL-based agents.
